Reference: patent US20170056379A1, “METHOD OF USING DOPAMINE REUPTAKE INHIBITORS AND THEIR ANALOGS FOR TREATING DIABETES SYMPTOMS AND DELAYING OR […]-[…]” (CALIPER LIFE SCIENCES, INC., priority 2009, published 2017)
Entries after “also recorded” stand apart in the source; their conditions may differ.

How the values were obtained:
Format in all cases: in vivo
FVB strain of mice [1] = test: Mediation of hyperglycemic conditions: blood glucose and body mass in high fat diet mice; details: 10 mg/kg p.o. daily six days a week, after 4 weeks of treatment
Text: Mediation of hyperglycemic conditions—FVB strain of mice were used in this study. In our previous study (unpublished), we noted that the FVB strain provides a broad phenotypic window for most parameters of human diabetic conditions similar to C57B1/6. For instance, there was a noted weight gain and obesity induced with high and intermediate fat diets. A persistent high fat diet induces relatively robust hyperglycemic conditions and inefficient glucose disposal but with little noted effects on metabolic rate. There is little circadian impact and changes in activity patterns with the high fat diet.
Twenty FVB mice (˜12 weeks of age) were randomly separated into two groups (n=10). One group (of ten mice) was fed a high fat diet (ResearchDiets, New Brunswick, N.J., and Cat. #D12492); with the following caloric components: 20 percent protein; 20 percent carbohydrate; and 60 percent fat; 5.24 kcal/gram. Another group was fed with regular rodent chow (Labdiet, Richmond, Ind., product code 5010); 28.7 percent protein, 12.7 percent fat, and 58.6 percent carbohydrate; 3.43 kcal/gram. After seven-weeks, blood glucose levels (and body weight) of the two different groups were examined. […] The group fed on the high fat diet clearly developed a hyperglycemic condition. The difference in body mass was also clearly significant.
Each of the two groups were then further separated into two subgroups (n=5). For the high fat diet group, the separation of the animals from the hyperglycemic/high fat diet group into two sub-groups was normalized based on the blood glucose levels. One group, designated as high fat-D, were treated with a dopamine reuptake inhibitor (3-(phenylpropyl)-sydnonimine-N-phenylcarbamoyl), the other group, designated as high fat-N were treated with vehicle (30% captosol, 1% Tween (Tween® 20, a polyoxyethylene sorbitan esters available from Sigma) and 1% 1N HCl in H2O; hereafter referred to as vehicle). For the normal chow group, the separation was random but similarly designated and separated into drug treated (Normal-D) and vehicle controls (Normal-N). […]

FVB strain of mice [2] = test: Home-cage health and behavior; details: high-fat-diet-drug-treated group, in contrast to the high-fat-diet-vehicle-treated group
Text: Home-cage health and behavior—This is not a […] measurement but the behavior pattern that we noticed during the study. All 4 groups of animals were housed in pairs or trios according to stratification of either treated with drug or vehicle. For three of the 4 groups, e.g. Normal Diet-drug-treated, Normal Diet-vehicle-treated, and high-fat-diet-drug-treated, the animals appear to be healthy, were docile to handlers and non-aggressive with each other. However the high-fat-diet-vehicle-treated group started to develop underbelly lesions, bite marks, and aggressive behavior towards littermates. This pattern of behavior became especially noticeable after overnight fasting (in order for fasting blood glucose level). In fact, after the above mentioned second examination (examination of fasting blood glucose level after 4 weeks of drug treatment), one of the mice in the high-fat-diet-vehicle-treated group had to be euthanized due to wounds and lesions. The remainders (of the four mice) were subsequently housed individually. These changes of behavior patterns and or behavior oddities are likely indicative of neurological changes under pre-diabetic or diabetic conditions.

FVB strain of mice [3] = test: Mediation of diabetic-induced hypoalgesia (Hot-plate assay); details: for (Mean − Mean0)/Std0 (Wilcoxon rank sums, hot plate latency) / Score Mean (Wilcoxon rank sums, hot plate latency) / Score Sum (Wilcoxon rank sums, hot plate latency): hot plate 48° C.
Description: Mediation of diabetic-induced hypoalgesia (Hot-plate assay)—Mice were brought to the testing room and acclimatized for an hour before test. Pain reflexes in response to a thermal stimulus are measured using a Hot Plate Analgesia Meter from Harvard Apparatus. The plate surface was maintained at 48° C. that was measured by a built-in digital thermometer. Mice were placed on the hot plate which is surrounded by a clear acrylic cage with the Start/Stop trigger on the timer. […] For each subject, the test was performed three times with about 30 minute rest between tests. Animals were tested one at a time and were not habituated to the apparatus prior to testing.

FVB strain of mice [4] = test: Mediation of diabetic hypoalgesia (Tail-flick assay); details: for (Mean − Mean0)/Std0 (Wilcoxon rank sums, tail-flick latency) / Score Mean (Wilcoxon rank sums, tail-flick latency) / Score Sum (Wilcoxon rank sums, tail-flick latency): 5.0 mg/kg p.o. an hour before test
Description: Mediation of diabetic hypoalgesia (Tail-flick assay)—Mice were brought to the testing room, acclimatized and administered 3-(phenylpropyl)-sydnonimine-N-phenylcarbamoyl (5.0 mg/kg; p.o.) an hour before test. Pain reflexes in response to a thermal stimulus are measured using a tail-flick analgesic meter with a built in stop-timer from Columbus Instruments. Latencies to respond for the thermal stimulation is recorder. For each subject, the test was performed three times with about 30 minute rests between tests. Animals are tested one at a time and are not habituated to the apparatus prior to testing.

For CC(Cc1ccccc1)[n+]1cc([N-]C(=O)Nc2ccccc2)on1 (centres unmarked) [3-(phenylpropyl)-sydnonimine-N-phenylcarbamoyl], the “body mass of high fat diet groups compared with Normal Diet groups” value (FVB strain of mice [1]) was “still noticeably higher than the groups on the Normal Diet regardless of the drug exposure”, the “blood glucose levels of drug treated groups compared with respective sham treated groups” value (FVB strain of mice [1]; high fat and Normal Diet groups) was “lower levels of blood glucose than their respective sham treated groups” and the “blood glucose levels of high fat diet drug treated mice compared with Normal Diet group” value (FVB strain of mice [1]; high fat diet, 10 mg/kg) was “indistinguishable from the group of mice fed a Normal Diet; also recorded: no discernable differences”. For the same molecule, the “home-cage health and behavior” value (FVB strain of mice [2]) was “remained healthy, docile and playful with littermates”, the “thermal responses of high-fat-diet-drug-treated subjects compared with Normal Diet-vehicle-treated (hot plate)” value (FVB strain of mice [3]; FIG. 3) was “virtually no difference was observed” and the “effect on hypoalgesic conditions induced by diabetic conditions (hot plate test)” value (FVB strain of mice [3]; FIG. 3, high fat diet mice) was “attenuated the hypoalgesic”. For the same molecule, the “(Mean − Mean0)/Std0 (Wilcoxon rank sums, hot plate latency)” value (FVB strain of mice [3]; High Fat-D group) was −1.528, the “Score Mean (Wilcoxon rank sums, hot plate latency)” value (FVB strain of mice [3]; High Fat-D group) was 6.600 and the “Score Sum (Wilcoxon rank sums, hot plate latency)” value (FVB strain of mice [3]; High Fat-D group) was 33.000. For the same molecule, the “(Mean − Mean0)/Std0 (Wilcoxon rank sums, hot plate latency)” value (FVB strain of mice [3]; Normal-D group) was 1.898, the “Score Mean (Wilcoxon rank sums, hot plate latency)” value (FVB strain of mice [3]; Normal-D group) was 14.200 and the “Score Sum (Wilcoxon rank sums, hot plate latency)” value (FVB strain of mice [3]; Normal-D group) was 71.000. For the same molecule, the “thermal responses of high-fat-diet-drug-treated subjects compared with Normal Diet-vehicle-treated (tail-flick)” value (FVB strain of mice [4]; FIG. 4) was “virtually no difference was observed”, the “effect on hypoalgesic conditions induced by diabetic conditions (tail-flick test)” value (FVB strain of mice [4]; FIG. 4, high fat diet mice) was “attenuated the hypoalgesic” and the “(Mean − Mean0)/Std0 (Wilcoxon rank sums, tail-flick latency)” value (FVB strain of mice [4]; High Fat-D group) was −2.268. For the same molecule, the “Score Mean (Wilcoxon rank sums, tail-flick latency)” value (FVB strain of mice [4]; High Fat-D group) was 5.000, the “Score Sum (Wilcoxon rank sums, tail-flick latency)” value (FVB strain of mice [4]; High Fat-D group) was 25.000 and the “(Mean − Mean0)/Std0 (Wilcoxon rank sums, tail-flick latency)” value (FVB strain of mice [4]; Normal-D group) was −0.139. For the same molecule, the “Score Mean (Wilcoxon rank sums, tail-flick latency)” value (FVB strain of mice [4]; Normal-D group) was 9.600 and the “Score Sum (Wilcoxon rank sums, tail-flick latency)” value (FVB strain of mice [4]; Normal-D group) was 48.000.
